Laboratory results published in PubChem BioAssay (NCI).
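Values below derive from 48-hour exposures of cells grown in 96-well plates, with endpoints linearly interpolated between the two concentrations bracketing the appropriate inhibition level. GI50 = concentration required for 50% inhibition of growth. At the TGI there is no net growth.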

Columns and labels:
Assay in all cases: NCI tumour cell line growth inhibition, 48 h
NCI-H226 lung = test system: NCI-H226 lung
CCRF-CEM leukemia = test system: CCRF-CEM leukemia
HL-60(TB) leukemia = test system: HL-60(TB) leukemia
OVCAR-3 ovarian = test system: OVCAR-3 ovarian
NCI-H460 lung = test system: NCI-H460 lung
HCC-2998 colon = test system: HCC-2998 colon
SF-539 CNS = test system: SF-539 CNS
NCI-H23 lung = test system: NCI-H23 lung
U251 CNS = test system: U251 CNS
EKVX NSCLC = test system: EKVX NSCLC

| SMILES | GI50 (NCI-H226 lung) | TGI (NCI-H226 lung) | GI50 (CCRF-CEM leukemia) | TGI (CCRF-CEM leukemia) | GI50 (HL-60(TB) leukemia) | TGI (HL-60(TB) leukemia) | GI50 (OVCAR-3 ovarian) | TGI (OVCAR-3 ovarian) | GI50 (NCI-H460 lung) | TGI (NCI-H460 lung) | GI50 (HCC-2998 colon) | TGI (HCC-2998 colon) | GI50 (SF-539 CNS) | TGI (SF-539 CNS) | GI50 (NCI-H23 lung) | TGI (NCI-H23 lung) | TGI (U251 CNS) | TGI (EKVX NSCLC) | GI50 (U251 CNS) | GI50 (EKVX NSCLC) |
| --- | --- | --- | --- | --- | --- | --- | --- | --- | --- | --- | --- | --- | --- | --- | --- | --- | --- | --- | --- | --- |
| O=C(OCc1ncc(-c2ccc(C(F)(F)F)cc2)c(NC2CCCCCC2)n1)c1c(F)c(F)c(F)c(F)c1F | 5.59 µM | 21.2 µM | 1.83 µM | 7.02 µM | 5.53 µM | 22 µM | 4.09 µM | 13.8 µM | 17.3 µM | 40.1 µM | 16.7 µM | 32.7 µM | 16.3 µM | 30.7 µM | 10.6 µM | 28 µM | – | – | – | – |
| O=C(Nc1cccc(O)c1)C(=O)C(C(=O)c1ccc(Cl)c(Cl)c1)C1OC(=O)c2ccccc21 (stereo not given) | – | 21.9 µM | – | 55.5 µM | – | 36.5 µM | – | – | – | 27.5 µM | – | 29.2 µM | – | – | – | 32.6 µM | 21.3 µM | 46.6 µM | – | – |
| Cc1cc(N2CCSCC2)nc(NC2CCCC(Nc3ccnc4cc(Cl)ccc34)C2)n1 (stereo not given) | 3.2 µM | 11 µM | 2.62 µM | 10.9 µM | – | – | 1.84 µM | 3.72 µM | 1.97 µM | 4.13 µM | 1.81 µM | 3.63 µM | 1.69 µM | 3.16 µM | 2.55 µM | 7.99 µM | 3.7 µM | 10.8 µM | 1.91 µM | 2.7 µM |
| O=C(/C=C/c1ccccc1)n1c(-c2ccc(Cl)cc2)nc2ccccc21 | 2.17 µM | 6 µM | 0.731 µM | 3.45 µM | 1.4 µM | 4.88 µM | 1.11 µM | 2.64 µM | 1.53 µM | 3.5 µM | 1.8 µM | 3.45 µM | 1.47 µM | 2.92 µM | 1.91 µM | 4.89 µM | 3.22 µM | – | 1.6 µM | – |
| Cc1c(C(=O)/C=C/c2ccc(N(C)C)cc2)c(=O)n(-c2ccccc2)n1C | – | > 100 µM | – | > 100 µM | – | – | – | > 100 µM | – | > 100 µM | – | > 100 µM | – | > 100 µM | – | > 100 µM | > 100 µM | > 100 µM | – | – |
| COc1ccc2nc3cc([N+](=O)[O-])ccc3c(NCCCN(C)C)c2c1 | 0.251 µM | 2.42 µM | 0.557 µM | 4.31 µM | 0.0953 µM | – | 0.594 µM | 7.86 µM | 0.0409 µM | 1.5 µM | – | – | 0.52 µM | 3.19 µM | 0.17 µM | 0.737 µM | 0.375 µM | 7.91 µM | 0.0441 µM | 2.25 µM |
| COC1=CC(=O)C2C(C1=O)C(c1ccccc1)[C@H]2C (stereo not given in full) | – | – | – | > 100 µM | – | > 100 µM | – | > 100 µM | – | > 100 µM | – | > 100 µM | – | > 100 µM | – | > 100 µM | > 100 µM | > 100 µM | – | – |
| COC(C(=O)NCCCCNC(=O)C(OC)c1ccccc1)c1ccccc1 (stereo not given) | – | > 100 µM | – | > 100 µM | – | > 100 µM | – | > 100 µM | – | > 100 µM | – | – | – | > 100 µM | – | > 100 µM | > 100 µM | > 100 µM | – | – |
| COc1cc(CNC2c3cc4c(cc3C(c3cc(OC)c(OC)c(OC)c3)[C@H]3C(=O)OCC23)OCO4)cc(OC)c1OC (stereo not given in full) | – | 0.487 µM | – | 40.9 µM | – | 0.515 µM | – | > 100 µM | – | – | – | 13.1 µM | – | 0.403 µM | – | 0.77 µM | – | – | – | – |
| CC(=O)[CH-]C(=O)c1ccccc1.CC(=O)[CH-]C(=O)c1ccccc1.CCOCC[O-].CCOCC[O-].[Ti+4] | 5.55 µM | 22.6 µM | – | – | 13.8 µM | 45.4 µM | 21.6 µM | > 100 µM | 18.8 µM | 43.4 µM | 18.4 µM | 43.5 µM | 19.1 µM | 50.4 µM | – | – | 42.2 µM | 96.4 µM | 16 µM | 38.4 µM |
| CCN(CC)CCCNC(=O)c1c2c(n3ccccc13)C(=O)c1ncccc1C2=O | – | – | 2.21 µM | > 100 µM | – | – | 0.134 µM | 0.938 µM | 0.225 µM | 1.75 µM | 0.388 µM | 1.65 µM | 1.07 µM | 2.45 µM | 0.252 µM | 1.99 µM | 2.89 µM | 3.11 µM | 1.37 µM | 1.31 µM |
| O=C1C(Cl)C(c2ccccc2O)N1n1cnc2ccccc2c1=O (stereo not given) | – | > 100 µM | – | > 100 µM | – | > 100 µM | – | > 100 µM | – | > 100 µM | – | > 100 µM | – | – | – | > 100 µM | > 100 µM | 88.5 µM | – | – |
| N#C/C(=C1\SC(N=Nc2ccccc2)C(=O)N1c1ccccc1)c1nc2ccccc2[nH]1 (stereo not given) | – | > 100 µM | – | > 100 µM | – | > 100 µM | – | > 100 µM | – | > 100 µM | – | – | – | 64.4 µM | – | > 100 µM | > 100 µM | > 100 µM | – | – |
| CN(C)c1nc(=Nc2cccc(Cl)c2)ss1 | – | > 100 µM | – | 22.1 µM | – | 23 µM | – | – | – | 46.3 µM | – | 47.9 µM | – | 32.8 µM | – | > 100 µM | 24.1 µM | 56.5 µM | – | – |
| COc1cccc(NC(=O)c2sc3nc4c(cc3c2N)C(=O)CCC4)c1 | 2.18 µM | > 100 µM | 0.0893 µM | > 100 µM | 0.144 µM | > 100 µM | 0.0612 µM | 0.653 µM | 0.0953 µM | > 100 µM | 0.279 µM | > 100 µM | 0.108 µM | 0.587 µM | 0.346 µM | > 100 µM | 10.4 µM | – | 0.158 µM | – |
| CCOC(=O)C(C)(C)Oc1ccc(/C=C/C(=O)c2ccc(Cl)cc2)cc1 | – | 70.5 µM | – | 61.9 µM | – | > 100 µM | – | 30.4 µM | – | > 100 µM | – | – | – | 34 µM | – | 37.1 µM | 31.9 µM | > 100 µM | – | – |
| CN(C)C=C1C(Cl)=C(C=O)CC(C=O)=C1Cl | – | – | – | 10.6 µM | – | 4.74 µM | – | 27.7 µM | – | 39.7 µM | – | 28.7 µM | – | 27.9 µM | – | 37.1 µM | 23.7 µM | 54.3 µM | – | – |
| Cc1cc(Cl)ccc1NC(=O)C(=O)C(C(=O)c1ccc2ccccc2c1)C1OC(=O)c2ccccc21 (stereo not given) | – | 7.69 µM | – | 22.2 µM | – | – | – | 33.3 µM | – | 60.8 µM | – | 22.2 µM | – | 17.4 µM | – | 26.3 µM | 21.2 µM | 75.9 µM | – | – |
